The source of these data is patent US8586591B2, “Aminopyrazine derivative and medicine” (Nippon Shinyaku Co., Ltd., priority 2009, dated 2013).

Structures can show the parent of a compound that is named as a salt.

Usually IC50 stands for the concentration that inhibits the measured activity by half. Read a low IC50 as greater potency.

In one assay the target is T1, JAK2 tyrosine kinase (Homo sapiens, UniProt O60674).
T1 construct: purchased Carnabioscience Co
The assay is described as follows: Test 1: inhibitory activity to JAK2 tyrosine kinase (ELISA). The format is biochemical. Particulars: 25 μM ATP in substrate solution, 30° C. for 1 hour, n=2. Summed up: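 This is an ELISA read at A450 (HRP anti-phosphotyrosine antibody, TMB) of biotin-peptide phosphorylation captured on streptavidin. Enzyme solution was 0.75 nM JAK2, and the substrate solution was 625 nM peptide with 25 μM ATP in Tris pH 7.5 buffer. The reaction ran 1 h at 30 °C with compounds in duplicate, and IC50 was fitted non-linearly.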

The target of the next assay is T2, JAK3 tyrosine kinase (Homo sapiens, UniProt P52333).
T2 construct: purchased Carnabioscience Co
T2 sequence (P52333 1-1124): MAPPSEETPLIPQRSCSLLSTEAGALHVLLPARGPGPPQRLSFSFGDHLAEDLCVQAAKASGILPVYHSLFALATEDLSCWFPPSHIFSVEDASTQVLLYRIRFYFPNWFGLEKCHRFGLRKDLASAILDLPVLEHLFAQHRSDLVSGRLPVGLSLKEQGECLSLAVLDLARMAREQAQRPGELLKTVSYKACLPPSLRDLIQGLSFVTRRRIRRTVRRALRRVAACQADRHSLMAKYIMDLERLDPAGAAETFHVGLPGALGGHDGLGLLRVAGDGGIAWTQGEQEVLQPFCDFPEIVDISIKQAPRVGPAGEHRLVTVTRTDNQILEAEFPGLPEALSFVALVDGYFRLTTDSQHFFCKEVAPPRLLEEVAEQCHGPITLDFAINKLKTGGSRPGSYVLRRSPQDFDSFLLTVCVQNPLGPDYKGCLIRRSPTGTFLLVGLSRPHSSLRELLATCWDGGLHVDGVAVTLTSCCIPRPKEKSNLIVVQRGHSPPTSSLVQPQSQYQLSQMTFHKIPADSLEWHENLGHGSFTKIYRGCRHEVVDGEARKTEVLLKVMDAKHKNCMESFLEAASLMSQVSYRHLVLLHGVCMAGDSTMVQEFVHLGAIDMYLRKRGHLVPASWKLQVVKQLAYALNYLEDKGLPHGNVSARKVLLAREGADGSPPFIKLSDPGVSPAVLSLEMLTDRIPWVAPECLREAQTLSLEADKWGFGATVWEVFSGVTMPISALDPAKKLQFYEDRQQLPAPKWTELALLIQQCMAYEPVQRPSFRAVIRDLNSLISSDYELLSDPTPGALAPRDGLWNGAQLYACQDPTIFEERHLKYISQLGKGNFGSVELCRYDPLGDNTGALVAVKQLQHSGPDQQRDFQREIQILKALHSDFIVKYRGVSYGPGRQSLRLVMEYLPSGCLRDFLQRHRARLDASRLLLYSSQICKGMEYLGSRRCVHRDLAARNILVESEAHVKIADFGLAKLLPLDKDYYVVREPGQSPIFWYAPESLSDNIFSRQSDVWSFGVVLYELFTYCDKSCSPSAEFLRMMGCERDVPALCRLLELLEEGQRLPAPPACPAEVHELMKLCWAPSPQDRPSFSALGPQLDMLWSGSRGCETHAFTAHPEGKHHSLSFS
Put plainly: Test 1: inhibitory activity to JAK3 tyrosine kinase (ELISA). Format: biochemical. To be noted: 25 μM ATP in substrate solution, 30° C. for 1 hour, n=2. Summed up:
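ELISA of JAK3 kinase activity with absorbance read at 450 nm. Compounds were tested from DMSO dilution series at 100-fold the measurement concentrations (1000–0.01 μM), diluted up to 20 times in assay buffer, against a DMSO negative control. IC50 was estimated by non-linear regression of absorbance.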

T1 sequence (O60674 whole entry): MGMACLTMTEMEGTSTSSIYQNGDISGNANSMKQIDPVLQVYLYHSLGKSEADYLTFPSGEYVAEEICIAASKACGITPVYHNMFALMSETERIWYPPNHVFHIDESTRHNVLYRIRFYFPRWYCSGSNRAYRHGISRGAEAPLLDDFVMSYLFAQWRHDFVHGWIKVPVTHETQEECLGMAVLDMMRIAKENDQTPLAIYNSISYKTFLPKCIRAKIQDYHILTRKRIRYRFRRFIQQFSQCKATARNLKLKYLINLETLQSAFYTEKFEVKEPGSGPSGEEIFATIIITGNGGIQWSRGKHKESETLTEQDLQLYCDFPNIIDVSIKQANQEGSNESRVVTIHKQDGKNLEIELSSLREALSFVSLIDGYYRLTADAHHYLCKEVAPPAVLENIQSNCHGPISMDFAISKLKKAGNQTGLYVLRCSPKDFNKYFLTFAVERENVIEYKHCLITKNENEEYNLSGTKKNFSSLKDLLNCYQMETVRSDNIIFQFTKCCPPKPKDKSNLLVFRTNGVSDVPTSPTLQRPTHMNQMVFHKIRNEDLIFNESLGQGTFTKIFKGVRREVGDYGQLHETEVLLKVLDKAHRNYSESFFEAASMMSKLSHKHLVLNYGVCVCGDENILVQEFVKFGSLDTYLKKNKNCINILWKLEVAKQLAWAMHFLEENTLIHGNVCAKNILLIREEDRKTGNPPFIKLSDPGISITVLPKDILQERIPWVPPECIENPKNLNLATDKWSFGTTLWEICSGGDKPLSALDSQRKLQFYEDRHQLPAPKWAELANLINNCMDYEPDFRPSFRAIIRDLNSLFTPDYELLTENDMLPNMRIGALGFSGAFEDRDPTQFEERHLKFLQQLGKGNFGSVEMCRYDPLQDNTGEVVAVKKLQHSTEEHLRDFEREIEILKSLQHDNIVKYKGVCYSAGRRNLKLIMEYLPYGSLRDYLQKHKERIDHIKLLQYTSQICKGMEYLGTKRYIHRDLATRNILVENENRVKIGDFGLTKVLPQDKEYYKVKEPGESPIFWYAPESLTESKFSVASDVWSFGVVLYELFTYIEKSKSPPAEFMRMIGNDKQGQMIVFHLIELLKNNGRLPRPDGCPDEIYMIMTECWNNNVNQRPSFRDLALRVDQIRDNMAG

On to `C[C@H](Nc1cccc(Nc2cnccn2)n1)c1ccc(F)cc1` [Example 117, (S)—N^2-[1-(4-Fluorophenyl)ethyl]-N^6-(pyrazin-2-yl)pyridine-2,6-diamine dihydrochloride], for which the IC50 against JAK2 tyrosine kinase was 2.7 nM; against JAK3 tyrosine kinase, 190 nM.

In the case of `Cc1cn(-c2cc(Nc3cnccn3)nc(N[C@@H](C)c3ccc(F)cc3)n2)cn1` [Example 118, (S)—N^2-[1-(4-Fluorophenyl)ethyl]-6-(4-methyl-1H-imidazol-1-yl)-N^4-(pyrazin-2-yl)pyrimidine-2,4-diamine hydrochloride], the figures for the IC50 against JAK2 tyrosine kinase and on JAK3 tyrosine kinase were 1.6 nM and 290 nM, respectively.

`COc1ccc(-c2cc(Nc3cnccn3)nc(N[C@@H](C)c3ccc(F)cc3)c2)cc1` [Example 119, (S)—N^2-[1-(4-Fluorophenyl)ethyl]-4-(4-methoxyphenyl)-N^6-(pyrazin-2-yl)pyridine-2,6-diamine hydrochloride]: the 50% inhibitory concentration (IC50) against JAK2 tyrosine kinase turned out to be 28 nM; against JAK3 tyrosine kinase, 1600 nM.

For `C[C@H](Nc1cc(-c2ccc(F)cc2)cc(Nc2cnccn2)n1)c1ccc(F)cc1` [Example 120, (S)-4-(4-Fluorophenyl)-N^2-[1-(4-fluorophenyl)ethyl]-N^6-(pyrazin-2-yl)pyridine-2,6-diamine hydrochloride], the 50% inhibitory concentration (IC50) was determined as 23 nM against JAK2 tyrosine kinase and 1700 nM against JAK3 tyrosine kinase.

Regarding `Cc1cc(Nc2cnccn2)nc(N[C@@H](C)c2ccc(F)cc2)c1` [Example 121, (S)—N^2-[1-(4-Fluorophenyl)ethyl]-4-methyl-N^6-(pyrazin-2-yl)pyridine-2,6-diamine hydrochloride], the IC50 was 2.7 nM against JAK2 tyrosine kinase and 170 nM against JAK3 tyrosine kinase.

In the case of `C[C@H](Nc1nc(Nc2cnccn2)cc(N2CCC(C(=O)NS(C)(=O)=O)CC2)n1)c1ccc(F)cc1` [Example 122, (S)-1-{2-[1-(4-Fluorophenyl)ethylamino]-6-(pyrazin-2-ylamino)pyrimidin-4-yl}-N-(methylsulfonyl)piperidine-4-carboxamide], the IC50 against JAK2 tyrosine kinase was 0.4 nM; against JAK3 tyrosine kinase, 30 nM.

For the molecule `C[C@H](Nc1cc(-c2ccoc2)cc(Nc2cnccn2)n1)c1ccc(F)cc1` [Example 123, (S)—N^2-[1-(4-Fluorophenyl)ethyl]-4-(furan-3-yl)-N^6-(pyrazin-2-yl)pyridine-2,6-diamine], the IC50 against JAK2 tyrosine kinase is 5.4 nM; on JAK3 tyrosine kinase it was 330 nM.

On to `C[C@H](Nc1cc(N2CCN(S(C)(=O)=O)CC2)cc(Nc2cnccn2)n1)c1ccc(F)cc1` [Example 124, (S)—N^2-[1-(4-Fluorophenyl)ethyl]-4-[4-(methylsulfonyl)piperazin-1-yl]-N^6-(pyrazin-2-yl)pyridine-2,6-diamine hydrochloride], for which the IC50 was 1.3 nM at JAK2 tyrosine kinase and 66 nM on JAK3 tyrosine kinase.

On to `C[C@H](Nc1cc(N2CCC(O)(CO)CC2)cc(Nc2cnccn2)n1)c1ccc(F)cc1` [Example 125, (S)-1-{2-[1-(4-Fluorophenyl)ethylamino]-6-(pyrazin-2-ylamino)pyridin-4-yl}-4-(hydroxymethyl)piperidin-4-ol], for which the half-inhibitory concentration (IC50) against JAK2 tyrosine kinase came to 1.6 nM; on JAK3 tyrosine kinase, 130 nM.

For the molecule `C[C@H](Nc1cc(-c2ccc(S(N)(=O)=O)cc2)cc(Nc2cnccn2)n1)c1ccc(F)cc1` [Example 126, (S)-4-{2-[1-(4-Fluorophenyl)ethylamino]-6-(pyrazin-2-ylamino)pyridin-4-yl}benzenesulfonamide], the half-inhibitory concentration (IC50) on JAK2 tyrosine kinase was determined as 8.8 nM; against JAK3 tyrosine kinase, 630 nM.

With `C[C@H](Nc1cc(C(=O)NC2CCC2)cc(Nc2cnccn2)n1)c1ccc(F)cc1` [Example 168, (S)—N-Cyclobutyl-2-[1-(4-fluorophenyl)ethylamino]-6-(pyrazin-2-ylamino)isonicotinamide], the IC50 on JAK2 tyrosine kinase was found to be 17 nM; on JAK3 tyrosine kinase it was 1300 nM.

On to `CCCCNC(=O)c1cc(Nc2cnccn2)nc(N[C@@H](C)c2ccc(F)cc2)c1` [Example 169, (S)—N-Butyl-2-[1-(4-fluorophenyl)ethylamino]-6-(pyrazin-2-ylamino) isonicotinamide], for which the half-maximal inhibitory concentration (IC50) was 3 nM on JAK2 tyrosine kinase and 500 nM against JAK3 tyrosine kinase.
